Literature values as cited in patent publication US12565499B2, “Compounds and methods” (INTRA-CELLULAR THERAPIES, INC., priority 2012, dated 2026).

Test system: mice
Conditions: chronic administration; Berton et al., Science (2006) 311:864-868

SMILES: CNCCC(Oc1ccc(C(F)(F)F)cc1)c1ccccc1 (stereo not shown) [fluoxetine]
- reversal of isolation behavior in the social defeat/resident intruder model: reversed
